Patent publication EP0755382B1, “QUINOLONE DERIVATIVE FOR TREATMENT OF URINARY INCONTINENCE” (AstraZeneca AB, priority 1994, dated 1995)

Tests used:
intestinal smooth muscle = conditions: Vitolinya et al, Khim.-Farm. Zh., 15(1), 39-42, 1981; cited from earlier work
bladder = experiment: in vivo test in conscious catheterized rats: interval between bladder contractions, heart rate and MAP after oral dosing; set-up: species or system Wistar rats; conditions: dosed orally, 3 mg/kg
Experimental: Hale Wistar rats (400 - 500 g) are anesthetized with 50 mg/kg Nembutal, i.p. For each rat, the abdominal region and the front and back of the neck are shaved and povidone-iodine is applied to the skin. For carotid catheterization, the left carotid artery is exposed via a small ventral cervical incision. The exposed area is flushed with a 2% lidocaine HCl solution to relax the vessel. The catheter, filled with 0.9% saline, is introduced approximately 2.4 cm into the artery so that its tip resided in the aortic arch. The distal end of the catheter is exteriorized at the nape of the neck, filled with heparin (1000 units/ml) and heat sealed. For bladder catheterization, the bladder is exposed through a midline abdominal incision. […]
The rats are weighed, orally sham-dosed (dosing needle introduced, but no fluid expelled), and transvesical saline infusion (.18 ml/min) is begun and continued throughout the experiment. Variations in blood pressure, heart rate, intravesical pressure and urine output are recorded on either a Grass Polygraph or a Gould TA4000 recording system. […] At this point, a basal level of each experimental parameter is recorded and the rats are administered by oral gavage the appropriate dose of compound (in a 75% PEG 400 - saline vehicle) in concentrations such that the volume is 1 ml/kg body weight. […]

[1] = test system: guinea pig detrusor strips; experiment: first in vitro test: relaxation of guinea pig bladder detrusor strips contracted with 15 mM KCl; assay type: cell-based, guinea pigs; conditions: Cavia porcellus
Description: The actions of the compound as a smooth muscle relaxant useful as a therapeutic agent for the treatment of urinary incontinence through its action to open potassium channels and hyperpolarize the membrane potential in the bladder detrusor smooth muscle can be shown using suitably designed in vitro tests, such as the one described following. […] "IC50" is a well understood term and means the concentration of test compound which causes a 50% decrease in the in vitro contraction of the bladder tissue described in the following test.
Hale albino Hartley guinea pigs (450-500g) are sacrificed by carbon dioxide induced asphyxiation and quickly exsanguinated. The lower abdominal cavity is opened and the urinary bladder isolated. The bladder is cleaned of surrounding connective and adipose tissue, and the portion above the ureteral orifices is removed and washed in Krebs-Henseleit buffer solution of the following composition (in mH): NaCl 118.0, KCl 4.7, […] 1.2, KH2PO4 1.2, CaCl2 2.5, NaHCO3 25.0 and d-glucose 11.1. The solution is warmed to 37°C and gassed with 95% O2 and 5% CO2. […]
When the tissue relaxes to a steady state after the final washing, 15 mM KCl is again applied. […] The effect of the compound at each dose is expressed as % of the maximum inhibitory response, which is further normalized with respect to the corresponding effect of the compound vehicle control. […]

[2] = test system: guinea pig detrusor strips; experiment: second in vitro test: relaxation of guinea pig bladder detrusor strips contracted with 80 mM KCl; assay type: cell-based, guinea pigs; conditions: for potency in the second test compared with the first test: 80 mM KCl (second test) versus 15 mM KCl (first test)
Experimental: This second in vitro test is similar to the one described above with regard to tissue preparation and data acquisition. However, the following exceptions are noted. In this second test, the contraction of the detrusor strips during priming and after the equilibration period is achieved with 80 mM instead of 15 mM KCl (total concentration in the bath).
Typical calcium channel blockers like nifedipine, nimodipine, isradipine, and verapamil are able to relax and reduce the myogenic activity of guinea pig detrusor strips in both tests by virtue of their blocking action on calcium channels.

urinary incontinence = conditions: preliminary clinical trial; Nurse et al., British Journal of Urology (1991), 68, 27-31; cited from earlier work

CC1=C(C#N)C(c2ccccc2)C2=C(CC(C)(C)CC2=O)N1 (centres unmarked) [3-Cyano-4-phenyl-2,7,7-trimethyl-4,6,7,8-tetrahydro-5(1H)-quinolone]
effect on the cardiovascular system (intestinal smooth muscle): hypotensive properties
spasmogenic effect of acetylcholine and barium chloride on intestinal smooth muscle (intestinal smooth muscle): capable of blocking the spasmogenic effect

N#Cc1cccc([C@@H]2C=C(C(F)(F)F)NC3=C2C(=O)CCC3)c1 [The compound, (S)-(-)-4-(3-Cyanophenyl)-2-trifluoromethyl-4,6,7,8-tetrahydro-5(1H)-quinolone]
activity and selectivity for the bladder (bladder): active and selective for the bladder without significant cardiovascular effects
IC50 ([1]; concentration causing a 50% decrease in the in vitro contraction of the bladder tissue): 4.2 µM
IC50 ([2]; Cavia porcellus, second test, 80 mM KCl): 41.1 µM

CC1(C)Oc2ccc(C#N)cc2C(N2CCCC2=O)C1O (centres unmarked) [cromakalim]
treatment of urinary incontinence (urinary incontinence): effective
IC50 ([1]; first test): 0.6 to 0.9 µM
relaxant activity ([2]; second test, 80 mM KCl, at concentrations as high as 30 µM): insignificant relaxant activity

COC(=O)C1=C(C)NC(C)=C(C(=O)OC(C)C)C1c1cccc2nonc12 (centres unmarked) [isradipine]
potency in the second test compared with the first test [2]: more potent in the second test

COc1ccc(Cc2nccc3cc(OC)c(OC)cc23)cc1OC [papaverine]
sustained tension after high KCl stimulation ([2]; 80 mM KCl, 300 µM): totally abolished

COc1ccc(CCN(C)CCCC(C#N)(c2ccc(OC)c(OC)c2)C(C)C)cc1OC (centres unmarked) [verapamil]
potency in the second test compared with the first test [2]: more potent in the second test
